Measured values reported in the CheMixHub ionic liquid set.
± gives the uncertainty stated by the source.

Assay: xn = mol fraction of the nth substance listed

CC[n+]1ccn(C)c1.CS(=O)(=O)[O-] + O
100 kPa, frequency 0.003 MHz
Conditions	electrical conductivity [S/m]
293.15 K, x1 = 0.0165	3.25 ± 0.066
303.15 K, x1 = 0.1122	4.74 ± 0.095
313.15 K, x1 = 0.3752	2.25 ± 0.045
323.15 K, x1 = 0.0489	8.42 ± 0.17
323.15 K, x1 = 0.2034	5.15 ± 0.1
323.15 K, x1 = 0.3752	2.92 ± 0.059
323.15 K, x1 = 0.9339	0.827 ± 0.017
343.15 K, x1 = 0.0165	7.59 ± 0.15
343.15 K, x1 = 0.0489	11.4 ± 0.23
353.15 K, x1 = 0.0165	8.61 ± 0.17
353.15 K, x1 = 0.0489	13 ± 0.26
353.15 K, x1 = 0.3752	5.32 ± 0.11
353.15 K, x1 = 0.9339	2.01 ± 0.04

Conditions	viscosity [mPa·s]
293.15 K, 100 kPa, x1 = 0.0674	3.026 ± 0.042
298.15 K, 102.2 kPa, x1 = 0.75	42.2 ± 2.9
303.15 K, 100 kPa, x1 = 0.0177	1.135 ± 0.015
303.15 K, 100 kPa, x1 = 0.9357	115 ± 2.6
303.15 K, 102.2 kPa, x1 = 0.75	34.3 ± 2.3
313.15 K, 100 kPa, x1 = 0.0357	1.237 ± 0.017
313.15 K, 100 kPa, x1 = 0.1089	3.068 ± 0.043
313.15 K, 102.2 kPa, x1 = 0.75	24 ± 1.6
323.15 K, 100 kPa, x1 = 0.0177	0.756 ± 0.01
323.15 K, 100 kPa, x1 = 0.0357	1.012 ± 0.014
323.15 K, 100 kPa, x1 = 0.4263	12.22 ± 0.2
328.15 K, 102.2 kPa, x1 = 0.75	15.7 ± 1.1
353.15 K, 100 kPa, x1 = 0.0674	0.879 ± 0.012
353.15 K, 100 kPa, x1 = 0.1848	2.346 ± 0.033

CCCCCCCCCCCC[P+](CC)(CC)CC.N#Cc1ccc[n-]1 + OCC(O)CO
100 kPa
Conditions	electrical conductivity, 293.15 K [S/m]	electrical conductivity, 303.15 K [S/m]	electrical conductivity, 313.15 K [S/m]	viscosity, 293.15 K [mPa·s]	viscosity, 298.15 K [mPa·s]	viscosity, 303.15 K [mPa·s]	viscosity, 313.15 K [mPa·s]
x1 = 0.001	0.0008 ± 0.0001	0.0015 ± 0.0001	0.0028 ± 0.0001	–	–	–	–
x1 = 0.003	0.0025 ± 0.0001	0.0035 ± 0.0002	0.0061 ± 0.0003	1352 ± 210	860 ± 130	540 ± 80	214 ± 31
x1 = 0.005	0.0037 ± 0.0002	0.0051 ± 0.0002	0.0091 ± 0.0004	–	–	–	–
x1 = 0.007	0.0052 ± 0.0002	0.0065 ± 0.0003	0.0116 ± 0.0005	–	–	–	–
x1 = 0.01	0.0064 ± 0.0003	0.0076 ± 0.0004	0.0137 ± 0.0006	1415 ± 220	910 ± 140	573 ± 85	230 ± 34
x1 = 0.013	0.0076 ± 0.0003	0.0105 ± 0.0005	0.0192 ± 0.0009	–	–	–	–
x1 = 0.016	0.0081 ± 0.0003	0.0125 ± 0.0006	0.0233 ± 0.0011	–	–	–	–
x1 = 0.021	0.0086 ± 0.0004	0.0154 ± 0.0007	0.0287 ± 0.0012	–	–	–	–
x1 = 0.026	0.0096 ± 0.0004	0.0166 ± 0.0007	0.0312 ± 0.0013	1652 ± 260	1024 ± 160	620 ± 92	254 ± 37
x1 = 0.032	0.0102 ± 0.0005	0.0186 ± 0.0008	0.0342 ± 0.0014	–	–	–	–
x1 = 0.041	0.0111 ± 0.0005	0.0201 ± 0.0009	0.0368 ± 0.0016	2113 ± 330	1316 ± 200	790 ± 120	321 ± 47
x1 = 0.049	0.0122 ± 0.0006	0.0233 ± 0.0011	0.0429 ± 0.0019	–	–	–	–
x1 = 0.056	0.0129 ± 0.0006	0.0252 ± 0.0014	0.0463 ± 0.002	2377 ± 380	1481 ± 230	910 ± 140	364 ± 54
x1 = 0.094	0.014 ± 0.0006	0.0256 ± 0.0011	0.0475 ± 0.002	–	–	–	–
x1 = 0.139	0.012 ± 0.0006	0.0279 ± 0.0012	0.0522 ± 0.0021	2442 ± 390	1568 ± 240	1018 ± 150	442 ± 66
x1 = 0.196	–	–	–	2342 ± 370	1501 ± 230	960 ± 140	423 ± 63
x1 = 0.292	0.0092 ± 0.0005	0.0261 ± 0.0011	0.0495 ± 0.002	1719 ± 270	1114 ± 170	730 ± 110	336 ± 50
x1 = 0.343	0.0092 ± 0.0004	0.0203 ± 0.0009	0.0398 ± 0.0017	1481 ± 230	970 ± 150	658 ± 99	307 ± 45
x1 = 0.426	–	–	–	1086 ± 170	710 ± 110	473 ± 70	230 ± 33
x1 = 0.481	0.0109 ± 0.0005	0.0206 ± 0.0009	0.0404 ± 0.0017	–	–	–	–
x1 = 0.542	–	–	–	940 ± 140	638 ± 95	443 ± 65	231 ± 33
x1 = 0.677	0.0131 ± 0.0006	0.0239 ± 0.0011	0.0453 ± 0.002	860 ± 130	600 ± 89	425 ± 62	214 ± 31
x1 = 0.815	0.0183 ± 0.0008	0.0357 ± 0.0015	0.0635 ± 0.0026	623 ± 93	441 ± 65	321 ± 47	164 ± 24
x1 = 1	0.0267 ± 0.0011	0.0448 ± 0.0019	0.0786 ± 0.0032	422 ± 62	296 ± 43	212 ± 30	117 ± 17
